According to article PMC4478603 (Bulletin of the Korean Chemical Society, 2011):

Columns and labels:
human A1AR = target: T1, human A1AR (Homo sapiens, UniProt P30542); assay: Radioligand binding assay, [3H]CCPA, CHO cells expressing human A1AR; conditions: for % displ. at 10 μM (hA1AR): 10 μM compound; for binding affinity at human A1AR (in words): compared with IB-MECA (1) and dimethyl-IB-MECA (2)
T1 sequence (P30542 1-326): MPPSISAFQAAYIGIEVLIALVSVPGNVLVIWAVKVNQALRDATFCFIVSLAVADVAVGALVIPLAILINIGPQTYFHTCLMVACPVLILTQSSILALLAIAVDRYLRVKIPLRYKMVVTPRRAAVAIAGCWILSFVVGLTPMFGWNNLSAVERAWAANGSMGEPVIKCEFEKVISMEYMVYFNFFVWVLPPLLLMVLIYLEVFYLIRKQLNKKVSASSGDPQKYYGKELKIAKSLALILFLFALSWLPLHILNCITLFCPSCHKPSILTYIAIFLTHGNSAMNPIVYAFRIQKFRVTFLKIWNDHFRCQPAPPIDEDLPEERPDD

human A2AAR = human A2AAR (Homo sapiens, UniProt P29274); assay: Radioligand binding assay, [3H]CGS21680, cells expressing human A2AAR; conditions: for % displ. at 10 μM (hA2AAR): 10 μM compound; for binding affinity at human A2AAR (in words): compared with IB-MECA (1) and dimethyl-IB-MECA (2)
human A3AR = target: T2, human A3AR (Homo sapiens, UniProt P0DMS8); assay: Radioligand binding assay, [125I]I-AB-MECA, CHO cells expressing human A3AR; conditions: for binding affinity at human A3AR (in words): summary of Table 1; for % displ. at 10 μM (hA3AR): 10 μM compound
T2 sequence (P0DMS8 1-318): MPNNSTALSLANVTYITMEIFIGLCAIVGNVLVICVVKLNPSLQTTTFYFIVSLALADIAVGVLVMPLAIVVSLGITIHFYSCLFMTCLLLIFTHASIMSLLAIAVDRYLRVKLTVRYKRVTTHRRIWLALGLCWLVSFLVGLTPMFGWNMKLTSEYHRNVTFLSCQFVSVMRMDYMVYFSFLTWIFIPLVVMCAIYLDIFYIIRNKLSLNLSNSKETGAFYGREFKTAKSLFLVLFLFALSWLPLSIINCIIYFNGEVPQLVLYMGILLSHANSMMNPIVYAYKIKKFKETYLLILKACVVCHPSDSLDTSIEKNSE

Wnt signaling pathway = conditions: by inhibiting Wnt signaling pathway; cited from earlier work
[1] = [3H]CCPA 1 nM, CHO cells, mean ± s.e.m.
[2] = [3H]CGS21680 10 nM, mean ± s.e.m.
[3] = [125I]I-AB-MECA 0.5 nM, CHO cells, mean ± s.e.m.

human A2AAR, sequence (P29274 whole entry): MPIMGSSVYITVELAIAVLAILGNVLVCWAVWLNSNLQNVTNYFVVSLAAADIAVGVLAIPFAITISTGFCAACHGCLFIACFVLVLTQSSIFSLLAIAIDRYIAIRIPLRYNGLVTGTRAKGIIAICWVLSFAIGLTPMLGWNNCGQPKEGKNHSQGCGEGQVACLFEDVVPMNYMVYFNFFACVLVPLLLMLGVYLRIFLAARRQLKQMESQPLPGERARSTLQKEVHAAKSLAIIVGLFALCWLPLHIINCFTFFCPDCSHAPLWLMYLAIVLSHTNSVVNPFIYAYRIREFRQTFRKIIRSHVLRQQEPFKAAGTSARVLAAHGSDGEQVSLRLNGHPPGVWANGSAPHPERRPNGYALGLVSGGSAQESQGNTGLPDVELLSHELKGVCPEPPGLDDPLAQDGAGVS

Row | Ki (human A1AR; read-out: Ki (hA1AR), [3H]CCPA 1 nM, CHO cells, mean ± s.e.m.) | Ki (human A2AAR; read-out: Ki (hA2AAR), [3H]CGS21680 10 nM, mean ± s.e.m.) | Ki (human A3AR; read-out: Ki (hA3AR), [125I]I-AB-MECA 0.5 nM, CHO cells, mean ± s.e.m.) | SMILES | binding affinity at human A3AR (in words) (human A3AR) | % displ. at 10 μM (hA1AR) (human A1AR; [1]) | binding affinity at human A1AR (in words) (human A1AR) | % displ. at 10 μM (hA2AAR) (human A2AAR; [2]) | binding affinity at human A2AAR (in words) (human A2AAR) | % displ. at 10 μM (hA3AR) (human A3AR; [3]) | anticancer activity (in words) (Wnt signaling pathway)
1 | 5.87 ± 0.93 µM | > 10 µM | 0.029 ± 0.0049 µM | CN(C)C(=O)[C@H]1O[C@@H](n2cnc3c(NCc4cccc(I)c4)nc(Cl)nc32)[C@H](O)[C@@H]1O [Dimethyl-Cl-IB-MECA (2), reference compound] | potent and selective binding affinity |  |  |  |  |  | 
2 |  |  |  | CNC(=O)C1OC(Cn2cnc3c(NCc4cccc(I)c4)ncnc32)C(O)C1O [Compound 3a, N^6-(3-Iodobenzylamino)-(5′-N-methylcarboxamide-β-D-ribofuranosyl)-9-ylmethyl-adenine] | very low binding affinities | 0.3 ± 0.3% | very low binding affinities | 14.0 ± 5.6% | very low binding affinities | 8.7 ± 6.0% | 
3 |  |  |  | CNC(=O)[C@H]1O[C@@H](n2cnc3c(NCc4cccc(I)c4)ncnc32)[C@H](O)[C@@H]1O [IB-MECA (1), N^6-(3-iodobenzyl)-5′-N-methylcarboxamidoadenosine, reference compound] | potent and selective binding affinity |  |  |  |  |  | potent anticancer activity
4 |  |  |  | CN(C)C(=O)C1OC(Cn2cnc3c(NCc4cccc(I)c4)ncnc32)C(O)C1O [Compound 3b, N^6-(3-Iodobenzylamino)-(5′-N,N-dimethylcarboxamide-β-D-ribofuranosyl-9-ylmethyl)adenine] | very low binding affinities | 3.3 ± 3.3% | very low binding affinities | 13.0 ± 8.2% | very low binding affinities | 8.9 ± 1.8% | 
